Source: US11566007B2, “Ras inhibitors” (Revolution Medicines, Inc., priority 2019, dated 2023)

Legend:
NCI-H358 (K-Ras G12C) = assay: CellTiter-Glo cell viability assay, NCI-H358; assay type: cell-based, human; settings: Homo sapiens, NCI-H358, 120 h, NCI-H358, 5-day treatment; class symbols; read-out: Additional H358 Cell Viability assay data (K-Ras G12C, IC50)
Method in brief: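 Four-parameter logistic fits were applied to luminescence data normalized against DMSO-treated wells. Readings were taken on day 5 following direct compound addition, after roughly 30 minutes at room temperature.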

K-Ras G12C = K-Ras G12C (Homo sapiens (Human), UniProt P01116+P62937, G12C); assay: Ras-Raf (BRAF RBD) disruption / FRET / MOA assay, KRAS G12C; assay type: biochemical; settings: KRAS G12C; Ras-Raf disruption/FRET/MOA assay; read-out: IC50* KRAS G12C FRET data
Sequence of K-Ras G12C (P01116-2 other isoform, or with tags, fused parts or gaps G12C): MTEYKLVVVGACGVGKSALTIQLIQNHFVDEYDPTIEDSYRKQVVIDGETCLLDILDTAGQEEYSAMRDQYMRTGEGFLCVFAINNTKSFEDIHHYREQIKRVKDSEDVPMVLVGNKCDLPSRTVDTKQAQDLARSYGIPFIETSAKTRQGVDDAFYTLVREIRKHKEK
Sequence of K-Ras G12C (P62937 whole entry): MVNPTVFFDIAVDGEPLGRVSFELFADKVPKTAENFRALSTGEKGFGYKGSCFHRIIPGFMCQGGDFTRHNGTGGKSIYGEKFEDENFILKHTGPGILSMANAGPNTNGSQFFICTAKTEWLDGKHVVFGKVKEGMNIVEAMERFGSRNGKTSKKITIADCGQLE
Method in brief: (§1)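 Ternary complex formation (Ras–compound–cyclophilin A) displacing BRAF RBD, monitored by TR-FRET. Three hours at 25° C with compound (top 30 μM final), then 1.5 h with the labelled antibodies. Lower ratio than DMSO indicates disruption; IC50 reported.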

K-Ras G13C = K-Ras G13C (Homo sapiens (Human), UniProt P01116+P62937, G13C); assay: Ras-Raf (BRAF RBD) disruption / FRET / MOA assay, KRAS G13C; assay type: biochemical; settings: KRAS G13C; Ras-Raf disruption/FRET/MOA assay; read-out: IC50* KRAS G13C FRET data
Sequence of K-Ras G13C (P01116-2 other isoform, or with tags, fused parts or gaps G13C): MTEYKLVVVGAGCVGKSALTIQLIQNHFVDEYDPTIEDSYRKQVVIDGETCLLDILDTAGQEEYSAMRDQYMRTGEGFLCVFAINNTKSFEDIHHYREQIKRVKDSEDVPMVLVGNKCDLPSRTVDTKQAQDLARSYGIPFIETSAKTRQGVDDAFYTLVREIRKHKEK
Sequence of K-Ras G13C (P62937 whole entry): as the sequence (P62937 whole entry) above
Method in brief: as §1

KRAS G12S = KRAS G12S (Homo sapiens (Human), UniProt P01116+P62937, G12S); assay: Ras-Raf (BRAF RBD) disruption / FRET / MOA assay, KRAS G12S; assay type: biochemical; settings: Ras-Raf disruption/FRET/MOA assay; class symbols; read-out: KRAS G12S FRET data IC50
Sequence of KRAS G12S (P01116-2 other isoform, or with tags, fused parts or gaps G12S): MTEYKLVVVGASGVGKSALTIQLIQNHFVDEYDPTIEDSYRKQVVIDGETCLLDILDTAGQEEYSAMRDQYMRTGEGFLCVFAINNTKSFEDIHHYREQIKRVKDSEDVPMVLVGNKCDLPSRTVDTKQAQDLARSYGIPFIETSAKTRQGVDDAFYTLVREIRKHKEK
Sequence of KRAS G12S (P62937 whole entry): as the sequence (P62937 whole entry) above
Method in brief: as §1

KRAS G12D = KRAS G12D (Homo sapiens (Human), UniProt P01116+P62937, G12D); assay: Ras-Raf (BRAF RBD) disruption / FRET / MOA assay, KRAS G12D; assay type: biochemical; settings: Ras-Raf disruption/FRET/MOA assay; class symbols; read-out: KRAS G12D FRET data IC50
Sequence of KRAS G12D (P01116-2 other isoform, or with tags, fused parts or gaps G12D): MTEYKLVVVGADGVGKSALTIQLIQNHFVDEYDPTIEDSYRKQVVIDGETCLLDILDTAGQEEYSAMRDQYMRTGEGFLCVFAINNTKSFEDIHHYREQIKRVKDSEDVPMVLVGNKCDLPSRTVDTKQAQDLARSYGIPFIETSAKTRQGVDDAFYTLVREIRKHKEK
Sequence of KRAS G12D (P62937 whole entry): as the sequence (P62937 whole entry) above
Method in brief: as §1

KRAS G12V = KRAS G12V (Homo sapiens (Human), UniProt P01116+P62937, G12V); assay: Ras-Raf (BRAF RBD) disruption / FRET / MOA assay, KRAS G12V; assay type: biochemical; settings: read-out: IC50* KRAS G12V FRET data
Sequence of KRAS G12V (P01116-2 other isoform, or with tags, fused parts or gaps G12V): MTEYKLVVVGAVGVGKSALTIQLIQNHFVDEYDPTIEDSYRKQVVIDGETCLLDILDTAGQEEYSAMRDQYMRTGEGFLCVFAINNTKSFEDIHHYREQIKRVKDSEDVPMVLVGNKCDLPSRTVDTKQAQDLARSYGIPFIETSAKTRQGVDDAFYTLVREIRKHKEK
Sequence of KRAS G12V (P62937 whole entry): as the sequence (P62937 whole entry) above
Method in brief: as §1

KRAS WT = KRAS WT (Homo sapiens (Human), UniProt P01116+P62937); assay: Ras-Raf (BRAF RBD) disruption / FRET / MOA assay, KRAS WT; assay type: biochemical; settings: read-out: IC50* KRAS WT FRET data
Sequence of KRAS WT (P01116-2 other isoform, or with tags, fused parts or gaps): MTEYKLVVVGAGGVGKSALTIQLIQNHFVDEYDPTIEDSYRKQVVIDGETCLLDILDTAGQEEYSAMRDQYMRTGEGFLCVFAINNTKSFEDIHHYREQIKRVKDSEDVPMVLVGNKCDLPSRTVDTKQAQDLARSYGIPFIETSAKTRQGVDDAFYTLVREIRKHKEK
Sequence of KRAS WT (P62937 whole entry): as the sequence (P62937 whole entry) above
Method in brief: as §1

KRAS G13D = KRAS G13D (Homo sapiens (Human), UniProt P01116+P62937, G13D); assay: Ras-Raf (BRAF RBD) disruption / FRET / MOA assay, KRAS G13D; assay type: biochemical; settings: read-out: IC50* KRAS G13D FRET data
Sequence of KRAS G13D (P01116-2 other isoform, or with tags, fused parts or gaps G13D): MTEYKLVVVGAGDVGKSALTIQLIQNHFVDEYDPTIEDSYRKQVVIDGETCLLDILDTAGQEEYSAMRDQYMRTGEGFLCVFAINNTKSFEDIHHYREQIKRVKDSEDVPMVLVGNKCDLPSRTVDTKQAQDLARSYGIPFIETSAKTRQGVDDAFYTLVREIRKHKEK
Sequence of KRAS G13D (P62937 whole entry): as the sequence (P62937 whole entry) above
Method in brief: as §1

KRAS Q61H = KRAS Q61H (Homo sapiens (Human), UniProt P01116+P62937, Q61H); assay: Ras-Raf (BRAF RBD) disruption / FRET / MOA assay, KRAS Q61H; assay type: biochemical; settings: Ras-Raf disruption/FRET/MOA assay; class symbols; read-out: KRAS Q61H FRET data IC50
Sequence of KRAS Q61H (P01116-2 other isoform, or with tags, fused parts or gaps Q61H): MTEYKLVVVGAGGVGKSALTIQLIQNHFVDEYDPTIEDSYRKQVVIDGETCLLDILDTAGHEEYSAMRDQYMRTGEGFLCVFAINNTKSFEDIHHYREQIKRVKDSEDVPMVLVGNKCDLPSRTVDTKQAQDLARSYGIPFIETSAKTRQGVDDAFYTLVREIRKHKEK
Sequence of KRAS Q61H (P62937 whole entry): as the sequence (P62937 whole entry) above
Method in brief: (§2)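 Compounds were tested as a 10-point 3-fold dilution series from 30 μM final for their ability to drive ternary complex formation between nucleotide-loaded Ras and cyclophilin A, displacing the BRAF RBD. After 3 h at 25° C., anti-His Eu-W1024 (10 nM) and anti-GST allophycocyanin (50 nM) were added for 1.5 h. A TR-FRET ratio decrease versus DMSO gave IC50.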

NRAS G12C = NRAS G12C (Homo sapiens (Human), UniProt P01111+P62937, G12C); assay: Ras-Raf (BRAF RBD) disruption / FRET / MOA assay, NRAS G12C; assay type: biochemical; settings: read-out: IC50* NRAS G12C FRET data
Sequence of NRAS G12C (P01111 whole entry G12C): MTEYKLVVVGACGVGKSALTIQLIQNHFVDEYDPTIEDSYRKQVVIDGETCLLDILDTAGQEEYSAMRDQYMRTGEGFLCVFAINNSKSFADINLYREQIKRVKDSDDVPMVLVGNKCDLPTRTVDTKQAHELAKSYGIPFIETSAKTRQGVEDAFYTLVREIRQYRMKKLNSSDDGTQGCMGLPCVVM
Sequence of NRAS G12C (P62937 whole entry): as the sequence (P62937 whole entry) above
Method in brief: as §1

NRAS Q61R = NRAS Q61R (Homo sapiens (Human), UniProt P01111+P62937, Q61R); assay: Ras-Raf (BRAF RBD) disruption / FRET / MOA assay, NRAS Q61R; assay type: biochemical; settings: NRAS Q61R; Ras-Raf disruption/FRET/MOA assay; read-out: IC50* NRAS Q61R FRET data
Sequence of NRAS Q61R (P01111 whole entry Q61R): as the sequence (P01111 whole entry G12C) above, with C12G, Q61R counted along it
Sequence of NRAS Q61R (P62937 whole entry): as the sequence (P62937 whole entry) above
Method in brief: as §2

NRAS WT = NRAS WT (Homo sapiens (Human), UniProt P01111+P62937); assay: Ras-Raf (BRAF RBD) disruption / FRET / MOA assay, NRAS WT; assay type: biochemical; settings: read-out: IC50* NRAS WT FRET data
Sequence of NRAS WT (P01111 whole entry): as the sequence (P01111 whole entry G12C) above, with C12G counted along it
Sequence of NRAS WT (P62937 whole entry): as the sequence (P62937 whole entry) above
Method in brief: as §2

Structure (SMILES) | IC50 (NCI-H358 (K-Ras G12C)) | IC50 (K-Ras G12C) | IC50 (K-Ras G13C) | IC50 (KRAS G12S) | IC50 (KRAS G12D) | IC50 (KRAS G12V) | IC50 (KRAS WT) | IC50 (KRAS G13D) | IC50 (KRAS Q61H) | IC50 (NRAS G12C) | IC50 (NRAS Q61R) | IC50 (NRAS WT)
C=CC(=O)N1CC[C@H](C(=O)N(C)[C@H](C(=O)N[C@H]2Cc3nc(cs3)-c3ccc4c(c3)c(c(-c3cc5c(nc3[C@H](C)OC)CCN(C)C5)n4CC)CC(C)(C)COC(=O)[C@@H]3CCCN(N3)C2=O)C(C)C)C1 (atropisomer, axis not shown) [Example A472] | < 10 nM | 100 to 1000 nM | 1000 to 10000 nM | 1000 to 10000 nM | > 10000 nM | 1000 to 10000 nM | 1000 to 10000 nM | 1000 to 10000 nM | 1000 to 10000 nM | 100 to 1000 nM | 1000 to 10000 nM | 1000 to 10000 nM
C=CC(=O)N1CC[C@H](C(=O)N(C)[C@H](C(=O)N[C@H]2Cc3cc(C)cc(c3)-c3ccc4c(c3)c(c(-c3cccnc3[C@H](C)OC)n4CC)CC(C)(C)COC(=O)[C@@H]3CCCN(N3)C2=O)C(C)C)C1 (atropisomer, axis not shown) [Example A498] | 10 to 100 nM | 100 to 1000 nM | 1000 to 10000 nM | 1000 to 10000 nM | > 10000 nM | 1000 to 10000 nM | 1000 to 10000 nM | > 10000 nM | 1000 to 10000 nM | 100 to 1000 nM | 1000 to 10000 nM | 1000 to 10000 nM
C=CC(=O)N1CC[C@H](C(=O)N(C)[C@H](C(=O)N[C@H]2Cc3cccc(c3)-c3ccc4c(c3)c(c(-c3cccnc3[C@H](C)OC)n4CC#CC)CC(C)(C)COC(=O)[C@@H]3CCCN(N3)C2=O)C(C)C)C1 (atropisomer, axis not shown) [Example A531] | 10 to 100 nM | 100 to 1000 nM | 1000 to 10000 nM | 1000 to 10000 nM | > 10000 nM | 1000 to 10000 nM | 1000 to 10000 nM | > 10000 nM | 1000 to 10000 nM | 100 to 1000 nM | 1000 to 10000 nM | 1000 to 10000 nM
C=CC(=O)N1CCOC2(C1)CN(C(=O)N(C)[C@H](C(=O)N[C@H]1Cc3cccc(c3)-c3ccc4c(c3)c(c(-c3cccnc3[C@H](C)OC)n4CC(F)(F)F)CC(C)(C)COC(=O)[C@@H]3CCCN(N3)C1=O)C(C)C)C2 (atropisomer, axis not shown) [Example A538] | 10 to 100 nM | 10 to 100 nM | 10 to 100 nM | 100 to 1000 nM | 1000 to 10000 nM | 100 to 1000 nM | 100 to 1000 nM | 100 to 1000 nM | 100 to 1000 nM | 10 to 100 nM | 100 to 1000 nM | 100 to 1000 nM
CO[C@@H](C)c1ncccc1-c1c2c3cc(ccc3n1CC(F)(F)F)-c1cccc(c1)C[C@H](NC(=O)[C@H](C(C)C)N(C)C(=O)N1CCC3(CC1)CN(C(=O)/C=C/CN(C)C)C3)C(=O)N1CCC[C@H](N1)C(=O)OCC(C)(C)C2 (atropisomer, axis not shown) [Example A555] | 10 to 100 nM | 100 to 1000 nM | 10 to 100 nM | 100 to 1000 nM | 100 to 1000 nM | 100 to 1000 nM | 100 to 1000 nM | 100 to 1000 nM | 100 to 1000 nM | 100 to 1000 nM | 100 to 1000 nM | 100 to 1000 nM
CCn1c(-c2cccnc2[C@H](C)OC)c2c3cc(ccc31)-c1cccc(c1)C[C@H](NC(=O)[C@H](C(C)C)N1CC[C@@]3(CCN(C(=O)C#C[C@H]4COCCN4C4COC4)C3)C1=O)C(=O)N1CCC[C@H](N1)C(=O)OCC(C)(C)C2 (atropisomer, axis not shown) [Example A567] | < 10 nM | 10 to 100 nM | 100 to 1000 nM | 1000 to 10000 nM | 1000 to 10000 nM | 1000 to 10000 nM | 1000 to 10000 nM | 1000 to 10000 nM | 100 to 1000 nM | 10 to 100 nM | 1000 to 10000 nM | 1000 to 10000 nM
